From ChEMBL document CHEMBL1145005 (J Med Chem, 2003)

Key:
[1] = Log D value at pH 7.4; assay type: physicochemical; settings: buffer
[2] = Partition coefficient (logP); assay type: physicochemical; settings: octanol/water
[3] = Log P / Log D value was determined; assay type: physicochemical; settings: octanol/water
[4] = Oral bioavailability in rat; assay type: ADME, organism-based; settings: in vivo, read-out: Bioavailability_oral
[5] = Plasma t1/2 of compound was determined in diabetic rat; assay type: ADME, organism-based
[6] = Maximum concentration of drug in plasma was determined at 2 mg/kg orally; assay type: ADME, organism-based; set-up: dose 2 mg/kg, route oral; settings: in vivo, po
Rattus norvegicus [7] = assay: Effective dose to inhibit aldose reductase activity by normalizing the elevated lens fructose levels in sciatic nerve of chronically diabetic rat orally; assay type: functional; settings: po
Rattus norvegicus [8] = assay: Effective dose to inhibit aldose reductase activity by normalizing the elevated lens sorbitol levels in sciatic nerve of chronically diabetic rat orally; assay type: functional; settings: po
[9] = target: Aldo-keto reductase family 1 member B1 (Homo sapiens, UniProt P15121); assay: Inhibition of human recombinant Aldose reductase […]
Rattus norvegicus [10] = assay: Aldose reductase inhibition activity in vivo by normalizing the elevated nerve fructose levels in sciatic nerve of acutely diabetic rat at 20 mg/kg; assay type: functional
Rattus norvegicus [11] = assay: Aldose reductase inhibition activity in vivo by normalizing the elevated nerve sorbitol levels in sciatic nerve of acutely diabetic rat at 20 mg/kg; assay type: functional
Rattus norvegicus [12] = assay: Aldose reductase inhibition activity in vivo by normalizing the elevated nerve fructose levels in sciatic nerve of acutely diabetic rat at 10 mg/kg; assay type: functional
Rattus norvegicus [13] = assay: Aldose reductase inhibition activity in vivo by normalizing the elevated nerve sorbitol levels in sciatic nerve of acutely diabetic rat at 10 mg/kg; assay type: functional
Rattus norvegicus [14] = organism: Rattus norvegicus; assay: Effective dose to inhibit aldose reductase activity by normalizing the elevated nerve fructose levels in sciatic nerve of chronically diabetic rat
Rattus norvegicus [15] = organism: Rattus norvegicus; assay: Effective dose to inhibit aldose reductase activity by normalizing the elevated nerve sorbitol levels in sciatic nerve of chronically diabetic rat
[16] = pKa value of compound was determined; assay type: physicochemical
Rattus norvegicus [17] = assay: Aldose reductase inhibition activity in vivo by normalizing the elevated nerve fructose levels in sciatic nerve of acutely diabetic rat at 300 mg/kg; assay type: functional
Rattus norvegicus [18] = assay: Aldose reductase inhibition activity in vivo by normalizing the elevated nerve sorbitol levels in sciatic nerve of acutely diabetic rat at 300 mg/kg; assay type: functional
[19] = Dissociation constant was determined; assay type: physicochemical
Rattus norvegicus [20] = assay: Aldose reductase inhibition activity in vivo by normalizing the elevated lens sorbitol levels in sciatic nerve of acutely diabetic rat at 20 mg/kg; settings: read-out: Inhibition

Cc1c(S(=O)(=O)c2ccc(=O)[nH]n2)oc2ccc(Cl)cc12
logD [1]: 2.46 | logP [2]: 3.05 | Log P/Log D [3]: 0.81 | bioavailability [4]: 98% | half-life [5]: 26 h | Cmax [6]: 9000 ng/mL | ED90 (Rattus norvegicus [7]): 3 mg/kg | ED90 (Rattus norvegicus [8]): 0.8 mg/kg | IC50 [9]: 0.84 nM

O=c1ccc(S(=O)(=O)c2cc3ccccc3o2)n[nH]1
IC50 [9]: 150 nM

O=c1ccc(S(=O)(=O)c2ccc(Br)cc2F)n[nH]1
IC50 [9]: 140 nM

O=c1ccc(S(=O)(=O)c2cc3ccccc3[nH]2)n[nH]1
IC50 [9]: 5000 nM

Cc1ccc(S(=O)(=O)c2ccc(O)nn2)cc1
IC50 [9]: 1900 nM

O=c1ccc(S(=O)(=O)c2ccccc2Cl)n[nH]1
inhibition in vivo at 20 mg/kg (Rattus norvegicus [10]): 68% | IC50 [9]: 170 nM | inhibition in vivo at 20 mg/kg (Rattus norvegicus [11]): 96%

O=S(=O)(c1ccc(O)nn1)c1ccccc1-c1ccccc1
IC50 [9]: 2200 nM

O=S(=O)(c1ccc(O)nn1)c1nc2ccccc2s1
IC50 [9]: 450 nM

O=c1ccc(S(=O)(=O)c2cc3ccccc3s2)n[nH]1
IC50 [9]: 150 nM

O=c1ccc(S(=O)(=O)c2ccc(F)cc2Cl)n[nH]1
inhibition in vivo at 10 mg/kg (Rattus norvegicus [12]): 46% | inhibition in vivo at 10 mg/kg (Rattus norvegicus [13]): 91% | IC50 [9]: 280 nM

O=c1ccc(S(=O)(=O)c2ccc(Cl)cc2Cl)n[nH]1
inhibition in vivo at 10 mg/kg (Rattus norvegicus [12]): 73% | inhibition in vivo at 10 mg/kg (Rattus norvegicus [13]): 95% | IC50 [9]: 190 nM | ED90 (Rattus norvegicus [14]): 20 mg/kg | ED90 (Rattus norvegicus [15]): 5 mg/kg

O=c1ccc(S(=O)(=O)c2ccccc2Br)n[nH]1
IC50 [9]: 210 nM

COc1ccc(S(=O)(=O)c2ccc(=O)[nH]n2)cc1
IC50 [9]: 2000 nM

O=S(=O)(c1ccccc1)c1ccc(O)nn1
pKa [16]: 7.1 | inhibition in vivo at 300 mg/kg (Rattus norvegicus [17]): 89% | inhibition in vivo at 300 mg/kg (Rattus norvegicus [18]): 95% | IC50 [9]: 600 nM

O=C1NC(=O)[C@@]2(CCOc3ccc(F)cc32)N1 [SORBINIL]
pKa [19]: > 8

O=C(O)Cc1nn(Cc2nc3cc(C(F)(F)F)ccc3s2)c(=O)c2ccccc12 [ZOPOLRESTAT]
pKa [16]: 3 | inhibition in vivo at 20 mg/kg (Rattus norvegicus [20]): 41% | ED90 (Rattus norvegicus [14]): 40 mg/kg | ED90 (Rattus norvegicus [15]): 10 mg/kg
